# How the values were obtained:
# [1] = system: SF-295; assay: cells; format: functional, cell-based; conditions: Homo sapiens;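 also: growth inhibition of SF-295 cells, read out with a cell viability assay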
# Description: SANGER: Inhibition of human SF295 cell growth in a cell viability assay.
# [2] = system: NB1; assay: cells; format: functional, cell-based, Homo sapiens; conditions: Homo sapiens, NB1;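 also: reduction of NB1 cell proliferation, read out with a viability assay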
# Description: SANGER: Inhibition of human NB1 cell growth in a cell viability assay.
# [3] = system: SAS; assay: cells; format: functional, cell-based; conditions: Homo sapiens;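 also: growth inhibition of SAS cells, read out with a cell viability assay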
# Description: SANGER: Inhibition of human SAS cell growth in a cell viability assay.
# [4] = system: RPMI 8402; assay: SANGER: Inhibition of human RPMI-8402 cell growth in a cell viability assay.; format: functional, cell-based; conditions: Homo sapiens, RPMI 8402
# [5] = system: EW-24; assay: cells; format: functional, cell-based, Homo sapiens; conditions: Homo sapiens, EW-24;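 also: human EW-24 cancer cell line, growth inhibition read out via a cell viability assay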
# Description: SANGER: Inhibition of human EW-24 cell growth in a cell viability assay.
# [6] = system: YKG-1; assay: cells; format: functional, cell-based; conditions: Homo sapiens;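 also: cell growth inhibition, read out with a viability assay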
# Description: SANGER: Inhibition of human YKG-1 cell growth in a cell viability assay.
# [7] = system: RD; assay: cells; format: functional, cell-based; conditions: Homo sapiens
# Description: SANGER: Inhibition of human RD cell growth in a cell viability assay.
# [8] = system: NCI-H596; assay: cells; format: functional, cell-based; conditions: Homo sapiens;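 also: growth inhibition of NCI-H596 cells, read out with a cell viability assay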
# Description: SANGER: Inhibition of human NCI-H596 cell growth in a cell viability assay.
# [9] = system: KYSE-70 cell line; assay: cells; format: functional, cell-based; conditions: Homo sapiens;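 also: cell viability assay read-out, with IC50 expressing suppression of KYSE-70 cell growth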
# Description: SANGER: Inhibition of human KYSE-70 cell growth in a cell viability assay.
# [10] = system: HCC1569; assay: cells; format: functional, cell-based; conditions: Homo sapiens;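 also: growth inhibition of human HCC1569 cells, read out with a cell viability assay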
# Description: SANGER: Inhibition of human HCC1569 cell growth in a cell viability assay.
# [11] = system: PANC-08-13; assay: cells; format: functional, cell-based; conditions: Homo sapiens
# Description: SANGER: Inhibition of human PANC-08-13 cell growth in a cell viability assay.
# [12] = system: BFTC-909; assay: cells; format: functional, cell-based; conditions: Homo sapiens
# Description: SANGER: Inhibition of human BFTC-909 cell growth in a cell viability assay.
# [13] = system: HCT-15; assay: cells; format: functional, cell-based; conditions: Homo sapiens;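 also: cell viability readout, IC50 reflecting suppression of HCT-15 cell growth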
# Description: SANGER: Inhibition of human HCT-15 cell growth in a cell viability assay.
# [14] = system: HCC38; assay: cells; format: functional, cell-based; conditions: Homo sapiens;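 also: cell viability assay on the human HCC38 cell line, with IC50 marking the concentration that inhibits cell growth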
# Description: SANGER: Inhibition of human HCC38 cell growth in a cell viability assay.
# [15] = system: SCC-25; assay: cells; format: functional, cell-based; conditions: Homo sapiens;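 also: growth inhibition of SCC-25 cells, measured with a cell viability assay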
# Description: SANGER: Inhibition of human SCC-25 cell growth in a cell viability assay.
# [16] = system: FaDu; assay: cells; format: functional, cell-based; conditions: Homo sapiens;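 also: cell viability readout of growth inhibition in FaDu cells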
# Description: SANGER: Inhibition of human FADU cell growth in a cell viability assay.
# [17] = system: BC-3; assay: cells; format: functional, cell-based, Homo sapiens; conditions: Homo sapiens, BC-3;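 also: cell viability assay measuring growth inhibition of human BC-3 cells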
# Description: SANGER: Inhibition of human BC-3 cell growth in a cell viability assay.
# [18] = system: HCC1419; assay: cells; format: functional, cell-based; conditions: Homo sapiens;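 also: growth inhibition of human HCC1419 cells, read out as cell viability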
# Description: SANGER: Inhibition of human HCC1419 cell growth in a cell viability assay.
# [19] = system: GAMG; assay: cells; format: functional, cell-based; conditions: Homo sapiens;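 also: cell growth inhibition measured by a viability assay in the GAMG human cell line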
# Description: SANGER: Inhibition of human GAMG cell growth in a cell viability assay.
# [20] = system: CHL-1; assay: cells; format: functional, cell-based; conditions: Homo sapiens;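 also: cell growth inhibition, read out with a cell viability assay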
# Description: SANGER: Inhibition of human CHL-1 cell growth in a cell viability assay.
# [21] = system: CAKI-1; assay: cells; format: functional, cell-based; conditions: Homo sapiens;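 also: growth inhibition of CAKI-1 cells, measured by a cell viability assay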
# Description: SANGER: Inhibition of human CAKI-1 cell growth in a cell viability assay.
# [22] = system: Daudi; assay: cells; format: functional, cell-based, Homo sapiens; conditions: Homo sapiens, Daudi;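 also: growth inhibition of Daudi cells, read out by a viability assay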
# Description: SANGER: Inhibition of human Daudi cell growth in a cell viability assay.
# [23] = system: BT-20; assay: cells; format: functional, cell-based; conditions: Homo sapiens;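 also: cell viability assay measuring suppression of growth in human BT-20 cells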
# Description: SANGER: Inhibition of human BT-20 cell growth in a cell viability assay.
# [24] = system: HEC-1; assay: cells; format: functional, cell-based; conditions: Homo sapiens;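 also: growth inhibition of the cell line, read out with a cell viability assay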
# Description: SANGER: Inhibition of human HEC-1 cell growth in a cell viability assay.
# [25] = system: HT-1376; assay: cells; format: functional, cell-based; conditions: Homo sapiens
# Description: SANGER: Inhibition of human HT-1376 cell growth in a cell viability assay.
# [26] = system: SK-MEL-24; assay: cells; format: functional, cell-based; conditions: Homo sapiens;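 also: growth inhibition read out by a cell viability assay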
# Description: SANGER: Inhibition of human SK-MEL-24 cell growth in a cell viability assay.
# [27] = system: Raji; assay: cells; format: functional, cell-based, Homo sapiens; conditions: Homo sapiens, Raji;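 also: cell viability assay measuring inhibition of Raji cell growth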
# Description: SANGER: Inhibition of human Raji cell growth in a cell viability assay.
# [28] = system: K052; assay: cells; format: functional, cell-based, Homo sapiens; conditions: Homo sapiens, K052;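 also: Read-out from a cell viability assay, IC50 reflecting suppression of K052 cell growth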
# Description: SANGER: Inhibition of human K052 cell growth in a cell viability assay.
# [29] = system: MDA-MB-231; assay: cells; format: functional, cell-based; conditions: Homo sapiens
# Description: SANGER: Inhibition of human MDA-MB-231 cell growth in a cell viability assay.
# [30] = system: NCI-H630; assay: cells; format: functional, cell-based; conditions: Homo sapiens;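 also: growth inhibition of NCI-H630 cells, read out with a cell viability assay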
# Description: SANGER: Inhibition of human NCI-H630 cell growth in a cell viability assay.
# [31] = system: SCC-9; assay: cells; format: functional, cell-based; conditions: Homo sapiens;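 also: Read-out is a cell viability assay, with values giving inhibition of cell growth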
# Description: SANGER: Inhibition of human SCC-9 cell growth in a cell viability assay.
# [32] = system: SNU-C1; assay: cells; format: functional, cell-based, Homo sapiens; conditions: Homo sapiens, SNU-C1;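 also: growth inhibition of SNU-C1 human cells, read out by a cell viability assay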
# Description: SANGER: Inhibition of human SNU-C1 cell growth in a cell viability assay.
# [33] = system: HSC-4; assay: cells; format: functional, cell-based; conditions: Homo sapiens;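 also: growth inhibition of human HSC-4 cells, read out with a cell viability assay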
# Description: SANGER: Inhibition of human HSC-4 cell growth in a cell viability assay.
# [34] = system: SCLC-21H; assay: cells; format: functional, cell-based, Homo sapiens; conditions: Homo sapiens, SCLC-21H;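 also: growth inhibition of cultured human SCLC-21H cells, read out with a cell viability assay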
# Description: SANGER: Inhibition of human SCLC-21H cell growth in a cell viability assay.
# [35] = system: CAL-120; assay: cells; format: functional, cell-based; conditions: Homo sapiens;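 also: cell growth inhibition, read out as cell viability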
# Description: SANGER: Inhibition of human CAL-120 cell growth in a cell viability assay.
# [36] = system: CP66-MEL; assay: cells; format: functional, cell-based; conditions: Homo sapiens;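 also: growth inhibition of CP66-MEL cells determined in a cell viability assay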
# Description: SANGER: Inhibition of human CP66-MEL cell growth in a cell viability assay.
# [37] = system: OVCAR-5; assay: cells; format: functional, cell-based; conditions: Homo sapiens;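 also: growth inhibition of human OVCAR-5 cells, read out with a cell viability assay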
# Description: SANGER: Inhibition of human OVCAR-5 cell growth in a cell viability assay.
# [38] = system: NALM-6; assay: cells; format: functional, cell-based, Homo sapiens; conditions: Homo sapiens, NALM-6;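 also: growth inhibition of NALM-6 cells, read out with a cell viability assay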
# Description: SANGER: Inhibition of human NALM-6 cell growth in a cell viability assay.
# [39] = system: DK-MG; assay: cells; format: functional, cell-based; conditions: Homo sapiens;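 also: growth inhibition of DK-MG cells, read out with a cell viability assay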
# Description: SANGER: Inhibition of human DK-MG cell growth in a cell viability assay.
# [40] = system: KYSE-520 cell line; assay: cells; format: functional, cell-based; conditions: Homo sapiens;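 also: growth inhibition of human KYSE-520 cells, read out with a viability assay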
# Description: SANGER: Inhibition of human KYSE-520 cell growth in a cell viability assay.
# [41] = system: CHP-212; assay: cells; format: functional, cell-based; conditions: Homo sapiens
# Description: SANGER: Inhibition of human CHP-212 cell growth in a cell viability assay.
# [42] = system: P12-Ichikawa; assay: cells; format: functional, cell-based; conditions: Homo sapiens
# [43] = system: PFSK-1; assay: cells; format: functional, cell-based; conditions: Homo sapiens;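 also: cell viability assay measuring how strongly compounds suppress growth of human PFSK-1 cells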
# Description: SANGER: Inhibition of human PFSK-1 cell growth in a cell viability assay.
# [44] = system: NCI-H322M; assay: cells; format: functional, cell-based, Homo sapiens; conditions: Homo sapiens, NCI-H322M;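 also: cell viability assay measuring inhibition of growth of human NCI-H322M cells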
# Description: SANGER: Inhibition of human NCI-H322M cell growth in a cell viability assay.
# [45] = system: SJRH30; assay: cells; format: functional, cell-based; conditions: Homo sapiens;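 also: growth inhibition of human SJRH30 cells, read out with a cell viability assay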
# Description: SANGER: Inhibition of human SJRH30 cell growth in a cell viability assay.
# [46] = system: D-336MG; assay: cells; format: functional, cell-based, Homo sapiens; conditions: Homo sapiens, D-336MG
# Description: SANGER: Inhibition of human D-336MG cell growth in a cell viability assay.
# [47] = system: C-33-A; assay: cells; format: functional, cell-based; conditions: Homo sapiens;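 also: cell viability assay measuring growth inhibition of C-33-A cells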
# Description: SANGER: Inhibition of human C-33-A cell growth in a cell viability assay.
# [48] = system: RPMI-7951; assay: cells; format: functional, cell-based; conditions: Homo sapiens
# Description: SANGER: Inhibition of human RPMI-7951 cell growth in a cell viability assay.
# [49] = system: S-117; assay: cells; format: functional, cell-based; conditions: Homo sapiens
# Description: SANGER: Inhibition of human S-117 cell growth in a cell viability assay.
# [50] = system: SAOS-2; assay: cells; format: functional, cell-based; conditions: Homo sapiens;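 also: growth inhibition of human Saos-2 cells determined by a cell viability assay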
# Description: SANGER: Inhibition of human Saos-2 cell growth in a cell viability assay.
# [51] = system: PA-1; assay: cells; format: functional, cell-based; conditions: Homo sapiens;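 also: IC50 for suppression of PA-1 cell proliferation, determined with a cell viability read-out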
# Description: SANGER: Inhibition of human PA-1 cell growth in a cell viability assay.
# [52] = system: Huh-7; assay: cells; format: functional, cell-based; conditions: Homo sapiens;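 also: HuH-7 cell growth inhibition, read out with a cell viability assay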
# Description: SANGER: Inhibition of human HuH-7 cell growth in a cell viability assay.
# [53] = system: MDA-MB-361; assay: cells; format: functional, cell-based; conditions: Homo sapiens
# [54] = system: LP-1; assay: cells; format: functional, cell-based, Homo sapiens; conditions: Homo sapiens, LP-1;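 also: growth inhibition of human LP-1 cells, with the read-out taken from a cell viability assay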
# Description: SANGER: Inhibition of human LP-1 cell growth in a cell viability assay.
# [55] = system: MONO-MAC-6; assay: cells; format: functional, cell-based, Homo sapiens; conditions: Homo sapiens, MONO-MAC-6;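 also: cell viability assay measuring growth inhibition of human MONO-MAC-6 cells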
# Description: SANGER: Inhibition of human MONO-MAC-6 cell growth in a cell viability assay.
# [56] = system: HuO9; assay: cells; format: functional, cell-based; conditions: Homo sapiens;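 also: growth inhibition of HuO9 cells, read out with a cell viability assay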
# Description: SANGER: Inhibition of human HuO9 cell growth in a cell viability assay.
# [57] = system: UACC-62; assay: cells; format: functional, cell-based; conditions: Homo sapiens;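 also: growth inhibition of human UACC-62 cells, read out by a cell viability assay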
# Description: SANGER: Inhibition of human UACC-62 cell growth in a cell viability assay.
# [58] = system: NCI-H1792; assay: cells; format: functional, cell-based; conditions: Homo sapiens;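 also: growth inhibition of human NCI-H1792 cells, read out as cell viability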
# Description: SANGER: Inhibition of human NCI-H1792 cell growth in a cell viability assay.
# [59] = system: IGROV-1; assay: cells; format: functional, cell-based; conditions: Homo sapiens;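 also: reduction of IGROV-1 cell growth, read out with a viability assay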
# Description: SANGER: Inhibition of human IGROV-1 cell growth in a cell viability assay.
structure (smiles),measurement,setting,value
COC(=O)[C@H](CCSC)NC(=O)c1ccc(NC[C@@H](N)CS)cc1-c1ccccc1,IC50,[1],> 1020 nM
same,IC50,[2],> 1020 nM
same,IC50,[3],> 1020 nM
same,IC50,[4],> 1020 nM
same,IC50,[5],> 1020 nM
same,IC50,[6],> 1020 nM
same,IC50,[7],> 1020 nM
same,IC50,[8],> 1020 nM
same,IC50,[9],> 1020 nM
same,IC50,[10],> 1020 nM
same,IC50,[11],> 1020 nM
same,IC50,[12],> 1020 nM
same,IC50,[13],> 1020 nM
same,IC50,[14],> 1020 nM
same,IC50,[15],> 1020 nM
same,IC50,[16],> 1020 nM
same,IC50,[17],> 1020 nM
same,IC50,[18],> 1020 nM
same,IC50,[19],> 1020 nM
same,IC50,[20],> 1020 nM
same,IC50,[21],> 1020 nM
same,IC50,[22],> 1020 nM
same,IC50,[23],> 1020 nM
same,IC50,[24],> 1020 nM
same,IC50,[25],> 1020 nM
same,IC50,[26],> 1020 nM
same,IC50,[27],> 1020 nM
same,IC50,[28],> 1020 nM
same,IC50,[29],> 1020 nM
same,IC50,[30],> 1020 nM
same,IC50,[31],> 1020 nM
same,IC50,[32],> 1020 nM
same,IC50,[33],> 1020 nM
same,IC50,[34],> 1020 nM
same,IC50,[35],> 1020 nM
same,IC50,[36],> 1020 nM
same,IC50,[37],> 1020 nM
same,IC50,[38],> 1020 nM
same,IC50,[39],> 1020 nM
same,IC50,[40],> 1020 nM
same,IC50,[41],> 1020 nM
same,IC50,[42],> 1020 nM
same,IC50,[43],> 1020 nM
same,IC50,[44],> 1020 nM
same,IC50,[45],> 1020 nM
same,IC50,[46],> 1020 nM
same,IC50,[47],> 1020 nM
same,IC50,[48],> 1020 nM
same,IC50,[49],> 1020 nM
same,IC50,[50],> 1020 nM
same,IC50,[51],> 1020 nM
same,IC50,[52],> 1020 nM
same,IC50,[53],> 1020 nM
same,IC50,[54],> 1020 nM
same,IC50,[55],> 1020 nM
same,IC50,[56],> 1020 nM
same,IC50,[57],> 1020 nM
same,IC50,[58],> 1020 nM
same,IC50,[59],> 1020 nM
O=S(=O)(O)c1ccc2cc(/N=N/c3cc(S(=O)(=O)O)c4cccnc4c3O)ccc2c1,IC50,[1],> 16000 nM
same,IC50,[2],> 16000 nM
same,IC50,[3],> 16000 nM
same,IC50,[4],> 16000 nM
same,IC50,[5],> 16000 nM
same,IC50,[6],> 16000 nM
same,IC50,[7],> 16000 nM
same,IC50,[8],> 16000 nM
same,IC50,[9],> 16000 nM
same,IC50,[10],> 16000 nM
same,IC50,[11],> 16000 nM
same,IC50,[12],> 16000 nM
same,IC50,[13],15900 nM
same,IC50,[14],> 16000 nM
same,IC50,[15],> 16000 nM
same,IC50,[16],> 16000 nM
same,IC50,[17],> 16000 nM
same,IC50,[18],> 16000 nM
same,IC50,[19],> 16000 nM
same,IC50,[20],> 16000 nM
same,IC50,[21],> 16000 nM
same,IC50,[22],> 16000 nM
same,IC50,[23],> 16000 nM
same,IC50,[24],> 16000 nM
same,IC50,[25],> 16000 nM
same,IC50,[26],> 16000 nM
same,IC50,[27],> 16000 nM
same,IC50,[28],> 16000 nM
same,IC50,[29],> 16000 nM
same,IC50,[30],> 16000 nM
same,IC50,[31],> 16000 nM
same,IC50,[32],> 16000 nM
same,IC50,[33],> 16000 nM
same,IC50,[34],> 16000 nM
same,IC50,[35],> 16000 nM
same,IC50,[36],> 16000 nM
same,IC50,[37],> 16000 nM
same,IC50,[38],> 16000 nM
same,IC50,[39],> 16000 nM
same,IC50,[40],> 16000 nM
same,IC50,[41],> 16000 nM
same,IC50,[42],> 16000 nM
same,IC50,[43],> 16000 nM
same,IC50,[44],> 16000 nM
same,IC50,[45],> 16000 nM
same,IC50,[46],> 16000 nM
same,IC50,[47],> 16000 nM
same,IC50,[48],> 16000 nM
same,IC50,[49],> 16000 nM
same,IC50,[50],> 16000 nM
same,IC50,[51],> 16000 nM
same,IC50,[52],> 16000 nM
same,IC50,[53],> 16000 nM
same,IC50,[54],> 16000 nM
same,IC50,[55],> 16000 nM
same,IC50,[56],> 16000 nM
same,IC50,[57],> 16000 nM
same,IC50,[58],> 16000 nM
same,IC50,[59],> 16000 nM
Cc1ccc(C(=O)Nc2ccc(CN3CCN(C)CC3)c(C(F)(F)F)c2)cc1C#Cc1cnc2cccnn12 [PONATINIB],IC50,[1],> 512 nM
same,IC50,[2],> 512 nM
same,IC50,[3],> 512 nM
same,IC50,[4],> 512 nM
same,IC50,[5],> 512 nM
same,IC50,[6],> 512 nM
same,IC50,[7],> 512 nM
same,IC50,[8],> 512 nM
same,IC50,[9],> 512 nM
same,IC50,[10],> 512 nM
same,IC50,[11],> 512 nM
same,IC50,[12],> 512 nM
same,IC50,[13],> 512 nM
same,IC50,[14],> 512 nM
same,IC50,[15],> 512 nM
same,IC50,[16],> 512 nM
same,IC50,[17],> 512 nM
same,IC50,[18],> 512 nM
same,IC50,[19],> 512 nM
same,IC50,[20],> 512 nM
same,IC50,[21],217 nM
same,IC50,[22],25.4 nM
same,IC50,[23],> 512 nM
same,IC50,[24],> 512 nM
same,IC50,[25],> 512 nM
same,IC50,[26],398 nM
same,IC50,[27],> 512 nM
same,IC50,[28],> 512 nM
same,IC50,[30],> 512 nM
same,IC50,[31],> 512 nM
same,IC50,[32],> 512 nM
same,IC50,[33],> 512 nM
same,IC50,[34],> 512 nM
same,IC50,[35],476 nM
same,IC50,[36],> 512 nM
same,IC50,[37],> 512 nM
same,IC50,[38],255 nM
same,IC50,[39],> 512 nM
same,IC50,[40],> 512 nM
same,IC50,[41],> 512 nM
same,IC50,[42],> 512 nM
same,IC50,[43],> 512 nM
same,IC50,[44],> 512 nM
same,IC50,[45],> 512 nM
same,IC50,[46],> 512 nM
same,IC50,[47],> 512 nM
same,IC50,[48],> 512 nM
same,IC50,[49],> 512 nM
same,IC50,[50],> 512 nM
same,IC50,[51],> 512 nM
same,IC50,[52],278 nM
same,IC50,[53],> 512 nM
same,IC50,[54],> 512 nM
same,IC50,[55],8.37 nM
same,IC50,[56],54.5 nM
same,IC50,[57],> 512 nM
same,IC50,[58],> 512 nM
same,IC50,[59],> 512 nM
